Assay results taken from patent US11207379B2, “Peptides with anti-cancer activity” (IDP DISCOVERY PHARMA, S.L., priority 2016, dated 2021).

Tests used:
Assay type in all cases: cell-based
[1] = molecular target: A549, epithelial (lung cancer); test: Viability assay (MTT, Alamar Blue, hexosaminidase), 72 h; details: A549 cells, read-out: EC50
Procedure, shortened: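 A549 cells (5000/well, DMEM+10% FBS) were exposed for 72 h at 37° C. to compound, twofold serial dilutions from 100 μM, in triplicate. Viability was read consecutively by MTT (A570), Alamar Blue fluorescence and hexosaminidase activity, normalised to untreated cells. EC50 came from a variable-slope sigmoidal fit.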

[2] = molecular target: MM.1S, B Lymphoblast (multiple myeloma); test: as above; details: MM.1S cells, read-out: EC50
Procedure, shortened: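 MM.1S cells (RPMI-1640, 10% FBS, 2 mM glutamine, 37 °C) were seeded at 10000 cells/well and dosed after 24 h, starting at 100 μM with 1:1 serial dilutions, in triplicate, for 72 h. Viability was read sequentially by MTT (570 nm), Alamar Blue (535/590) and hexosaminidase (pH 5.0). Values were normalized to control (100%), and EC50 came from a variable-slope sigmoidal fit.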

[3] = system: JB healthy cells (BJ, fibroblast, normal skin); test: as above
Method: BJ, fibroblast (normal skin), ATCC® CRL-2522™
Cell lines A549, MCF-7 and RAMOS were cultured in incubator under CO2 (6%) at 37° C. in DMEM high glucose (Dulbecco's Modified Eagle Solution, Gibco-BRL 31966-21) medium with 10% fetal bovine serum inactivated (FBS) (Gibco-BRL 10106-169). Cell lines HL-60 and MM.1S were cultured in incubator at 37° C. in RPMI-1640 (Sigma R8758) medium with 10% of fetal bovine serum inactivated (FBS) and 2 mM glutamine (Sigma G7513). Cell lines BJ were cultured in incubator under CO2 (6%) at 37° C. in Eagle's Minimum Essential Medium (Sigma, M-2279) with 10% fetal bovine serum inactivated (FBS) (Gibco-BRL 10106-169).
During the amplification step and the assays adherent cells were rinsed with DPBS (Dulbecco's Phosphate Buffered Saline, Sigma D1283) three times and afterward treated for 5 minutes with trypsin ([…]) (Gibco-BRL, 15400054) in solution of DPBS at 37° C., and, once detached, transferred in the culturing medium. […] Cells were counted in a Neubauer chamber after labelling with Tripan-Blue. […]
Cells were incubated during 72 h in incubator under CO2 atmosphere at 37° C. Cell viability was measured by means of MTT (3-(4,5-dimethylthiazol-2-yl)-2.5-diphenyltetrazolium bromide) assay, Alamar Blue® (Biosource DAL1100) and Hexosaminidase activity test, consecutively, following manufacturer instructions. […]

[4] = molecular target: RAMOS, B lymphocyte (Burkitt's Lymphoma); test: as above; details: Ramos cells, read-out: EC50
Procedure, shortened: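 Ramos cells seeded at 10000 cells/well in DMEM + 10% FBS; after 24 h, compounds added as 1:1 serial dilutions from 100 μM and incubated 72 h at 37 °C. Viability read sequentially by MTT (A570), Alamar Blue (535/590) and hexosaminidase activity, normalized to untreated cells; EC50 from variable-slope sigmoidal fit.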

A549 cells = test: Annexin V assay by flow cytometry; details: A549 cells
Method: Miltenyi Biotec Annexin V-FITC Kit was used. To detect apoptosis in early stage Phosphatidylserine in plasmatic membrane localization was measured, though the calcium dependent reaction with Annexine V. Annexin V molecules were labelled with different fluorophores (FITC) and analyzed by FACS. To detect apoptosis in late stage DNA-intercalating agents, such Propidium iodide (PI) were used.
Cells were seeded at a density range of 150000-30000 cells/well in 12 wells plates, and incubated at 37° C. in the incubator under CO2 atmosphere. After 24 h, […] A549, HL-60 and MM.1S, at IC30 and/or IC80, with compounds IDP-S09 and IL-09, in cell lines HL-60 and MM.1S with compound IDP-S04 and in cell line A549 with compounds IDP-S02 and IDP-S03. Staurosporine and compound 100258-F4 (Sigma) were used as positive control and reference compound, respectively.

[5] = molecular target: HL-60, promyeloblast (acute myelocytic leukemia, AML); test: Viability assay (MTT, Alamar Blue, hexosaminidase), 72 h; details: HL-60 cells, read-out: EC50
Procedure, shortened: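 HL-60 seeded at 10000 cells/well in RPMI-1640/10% FBS, dosed after 24 h from 100 μM top concentration in 1:1 serial dilutions, incubated 72 h at 37° C. Viability read consecutively by MTT, Alamar Blue and hexosaminidase, normalised to untreated cells; EC50 from variable-slope sigmoidal fit, triplicates.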

RQRRNXLKRAFAXLRDQ-OH [IDP-S03]
EC50 [1]: 34 ± 6 µM
EC50 [2]: ~14 µM
EC50 [3]: > 100 µM
EC50 [4]: ~13 µM
apoptosis induction (Annexin V by FACS), in words (A549 cells): apoptosis induction is detected after 4 h at both IC30 and IC80
EC50 [5]: ~6.6 µM
